In patent US8143248B2, “Tricyclic N-heteroaryl-carboxamide derivatives containing a benzimidazole unit, method for preparing same and their therapeutic use” (Sanofi-Aventis, priority 2006, dated 2012):

What was measured:
TRPV1 receptors = molecular target: T1, TRPV1 receptors (Mus musculus, UniProt Q704Y3); assay: Mouse corneal irritation test (capsaicin-induced eye rubbing); type: in vivo; conditions: compound 500 μM, 2 μl on the cornea 10 minutes before capsaicin 160 μM; eye rubs counted over 2 minutes
T1 construct: application of a very small amount of capsaicin (2 μl at a concentration of 160 μM) to the surface of the cornea of an animal; from tissue; host or cells: mouse cornea in vivo (C fibres)
Protocol: Mouse Corneal Irritation Test
The irritant nature of capsaicin can be readily assessed at the level of the cornea since this organ is one of the most innervated by C fibers. In this context, according to the preliminary experiments, the application of a very small amount of capsaicin (2 μl at a concentration of 160 μM) to the surface of the cornea of an animal results in a certain number of stereotyped behaviors associated with the irritation and that can be readily listed. Among these are: blinking of the eye, rubbing of the eye instilled with the ipsilateral forelimb, rubbing of the face with both forelimbs, scratching of the ipsilateral face with the hind limb. […] Its appearance is, moreover, also normal. […] It can be concluded from this that the duration of action of capsaicin at these doses is less than 2 minutes.
Summary of the Methodology:
The principle of the series of experiments is to determine whether the compounds of the invention can influence the behavioral response induced by a given amount of capsaicin. The capsaicin is initially diluted to 25 mM in DMSO and diluted, for its final use, in physiological saline with 10% Tween 80. It appears, based on control studies, that, under these conditions, the solvent has no effect.
In practice, the product to be tested, prepared at 25 mM in DMSO and diluted for its final use in physiological saline with 10% Tween 80, at the highest concentration of 500 μM, is administered by local application to the surface of the cornea in a volume of 2 μl, 10 minutes before the application of the capsaicin. The animal receives the ocular instillation of 2 μl of a solution of capsaicin at […] prepared as indicated above. Over the course of a period of observation of 2 minutes following the instillation, the number of times the instilled eye is rubbed by the ipsilateral forelimb is counted for each animal.
For a given group, the percentage protection is calculated as follows: P=100−((average number of scratches of the group treated with the compound/average number of scratches of the group treated with the solvent)×100). […]

TRPV1 receptor = molecular target: T2, TRPV1 receptor (Rattus norvegicus, UniProt O35433); assay: Test for inhibition of the current induced by capsaicin on rat DRGs (whole-cell patch-clamp); type: cell-based; conditions: DRG neuron; compound at 10 nM; % inhibition of the control capsaicin response; newborn rat DRG neurons
T2 construct: The neurons of the DRG naturally express the TRPV1 receptor; endogenous in cells; host or cells: primary culture of newborn rat dorsal root ganglion neurons
Protocol: Test for Inhibition of the Current Induced by Capsaicin on Rat DRGs
Primary Culture of Rat Dorsal Root Ganglion (DRG) Cells:
The neurons of the DRG naturally express the TRPV1 receptor.
Newborn rat DRG primary cultures are prepared from 1-day-old rat pups. Briefly, after dissection, the ganglia are trypsinized and the cells are mechanically dissociated by controlled trituration. The cells are resuspended in an Eagle's basal culture medium containing 10% of fetal calf serum, 25 mM KCl, 2 mM glutamine, 100 μg/ml gentamicin and 50 ng/ml of NGF, and then deposited onto laminin-coated glass cover slips (0.25×10^6 cells per cover slip) which are then placed in 12-well Corning dishes. The cells are incubated at 37° C. in a humidified atmosphere containing 5% CO2 and 95% air. […]
The measuring chambers (volume 800 μl) containing the cell preparation are placed on the platform of an inverted microscope (Olympus IMT2) equipped with Hoffman optics (Modulation Contrast, New York), and observed at the magnification of ×400. […] The overall currents (membrane potential fixed at −60 mV) are recorded with an Axopatch 1D amplifier (Axon Instruments, Foster City, Calif.), connected to a PC controlled by Pclamp8 software (Axon Instrument). The current traces are recorded on paper and simultaneously digitized (sampling frequency 15 to […]) and acquired on the hard drive of the PC. […]

T1 sequence (Q704Y3 whole entry): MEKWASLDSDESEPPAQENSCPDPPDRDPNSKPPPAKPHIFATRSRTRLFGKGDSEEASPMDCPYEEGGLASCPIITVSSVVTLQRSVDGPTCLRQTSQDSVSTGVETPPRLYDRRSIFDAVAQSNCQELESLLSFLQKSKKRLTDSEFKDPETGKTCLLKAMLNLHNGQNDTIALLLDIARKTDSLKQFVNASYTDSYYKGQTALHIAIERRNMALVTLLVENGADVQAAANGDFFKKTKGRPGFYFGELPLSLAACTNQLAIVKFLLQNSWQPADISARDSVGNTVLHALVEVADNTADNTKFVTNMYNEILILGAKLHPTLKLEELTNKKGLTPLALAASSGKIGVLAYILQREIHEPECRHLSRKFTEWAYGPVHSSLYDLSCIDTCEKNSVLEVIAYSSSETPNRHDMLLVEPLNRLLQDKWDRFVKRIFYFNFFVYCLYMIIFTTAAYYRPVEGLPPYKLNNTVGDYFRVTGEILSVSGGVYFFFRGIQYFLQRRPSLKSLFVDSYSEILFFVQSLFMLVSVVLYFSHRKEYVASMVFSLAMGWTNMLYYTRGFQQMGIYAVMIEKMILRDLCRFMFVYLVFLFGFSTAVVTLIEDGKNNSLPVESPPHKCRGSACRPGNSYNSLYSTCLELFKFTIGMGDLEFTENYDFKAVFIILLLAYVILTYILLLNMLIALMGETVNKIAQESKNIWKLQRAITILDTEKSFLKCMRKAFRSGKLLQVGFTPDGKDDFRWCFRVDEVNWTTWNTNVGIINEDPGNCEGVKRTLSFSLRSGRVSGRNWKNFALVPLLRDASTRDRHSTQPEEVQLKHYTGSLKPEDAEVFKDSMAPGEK
T2 sequence (O35433 whole entry): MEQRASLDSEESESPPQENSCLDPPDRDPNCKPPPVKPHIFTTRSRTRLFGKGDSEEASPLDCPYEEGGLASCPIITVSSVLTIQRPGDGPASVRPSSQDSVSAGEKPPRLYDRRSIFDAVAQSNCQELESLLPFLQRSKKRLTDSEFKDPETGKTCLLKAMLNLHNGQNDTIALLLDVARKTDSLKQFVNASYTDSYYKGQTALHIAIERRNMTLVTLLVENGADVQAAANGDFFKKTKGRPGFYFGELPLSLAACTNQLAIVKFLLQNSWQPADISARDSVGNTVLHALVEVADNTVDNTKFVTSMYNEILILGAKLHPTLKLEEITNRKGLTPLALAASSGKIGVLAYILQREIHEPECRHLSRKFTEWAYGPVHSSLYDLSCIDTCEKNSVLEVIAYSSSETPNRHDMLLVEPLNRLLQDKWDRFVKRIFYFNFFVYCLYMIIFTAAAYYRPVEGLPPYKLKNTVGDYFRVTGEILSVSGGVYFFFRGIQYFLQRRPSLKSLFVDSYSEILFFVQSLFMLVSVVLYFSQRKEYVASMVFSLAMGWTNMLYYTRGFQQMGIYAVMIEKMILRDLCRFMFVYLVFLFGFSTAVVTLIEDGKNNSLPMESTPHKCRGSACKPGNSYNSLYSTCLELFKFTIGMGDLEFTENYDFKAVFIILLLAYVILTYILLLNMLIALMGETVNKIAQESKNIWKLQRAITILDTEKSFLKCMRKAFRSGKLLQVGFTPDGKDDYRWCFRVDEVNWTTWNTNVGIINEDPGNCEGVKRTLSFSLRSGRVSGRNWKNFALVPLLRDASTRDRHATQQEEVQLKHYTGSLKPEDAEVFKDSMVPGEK

Question: With `CC1CN=C2Nc3ccc(NC(=O)c4cc5cc(F)ccc5n4Cc4cccc(F)c4)cc3N21` (stereo not drawn) [Compound 26, N-(2,3-dihydro-3-methylimidazo[1,2-a]benzimidazol-6-yl)-5-fluoro-1-(3-fluorobenzyl)-1H-indole-2-carboxamide] as the compound, how does the “% P 500 μM (percentage protection)” value (TRPV1 receptors) read?
Answer: 46%

Question: With `O=C(Nc1ccc2c(c1)nc1n2CCC1)c1cc2cc(F)ccc2n1Cc1ccncc1` [Compound 5, N-(2,3-dihydro-1H-pyrrolo[1,2-a]benzimidazol-6-yl)-5-fluoro-1-[(pyridin-4-yl)methyl]-1H-indole-2-carboxamide] as the compound, how does the inhibition at 0.01 µM (TRPV1 receptor) read?
Answer: 53%

Question: For `O=C(Nc1ccc2nc3n(c2c1)CCOC3)c1cc2cc(F)ccc2n1Cc1cccc(F)c1` [Compound 15, N-(3,4-dihydro-1H-oxazino[1,4][4,3-a]benzimidazol-7-yl)-5-fluoro-1-(3-fluorobenzyl)-1H-indole-2-carboxamide], which “% P 500 μM (percentage protection)” value (TRPV1 receptors) is on record?
Answer: 56%

Question: For `O=C(Nc1ccc2c(c1)nc1n2CCCC1)c1cc2cc(F)ccc2n1Cc1ccncc1` [Compound 1, N-(1,2,3,4-tetrahydropyrido[1,2-a]benzimidazol-7-yl)-5-fluoro-1-[(pyridin-4-yl)methyl]-1H-indole-2-carboxamide], which inhibition at 0.01 µM (TRPV1 receptor) is on record?
Answer: 37%

Question: Which melting point does the source give for `O=C(Nc1ccc2nc3ncccn3c2c1)c1cc2cc(F)ccc2n1Cc1cccc(F)c1` here?
Answer: 295 to 298 °C

Question: For `O=C(Nc1ccc2c(c1)nc1n2CCC1)c1cc2cc(C(F)(F)F)cnc2n1Cc1ccccc1` [Compound 8, N-(2,3-dihydro-1H-pyrrolo[1,2-a]benzimidazol-6-yl)-1-benzyl-5-trifluoromethyl-1H-pyrrolo[2,3-b]pyridine-2-carboxamide], which “% P 500 μM (percentage protection)” value (TRPV1 receptors) is on record?
Answer: 71%
